Data set [1] relates to A2780cis (ovarian cisplatin resistant cancer). As to the kind of experiment: Cell viability (MTT), A2780cis. The class given is cell-based. As to conditions: for IC50: 48 h of incubation, MTT; for resistance factor (RF): IC50(A2780cis)/IC50(A2780); for Selectivity index (SI) A2780cis: IC50 MRC5 / IC50 A2780cis. As to the method:
(§1) The cell lines used in the tests were A2780 (ovarian cancer), A2780cis (ovarian cisplatin resistant cancer), A549 (lung cancer), MRC5 (non-tumoral lung […]), MDA-MB-231 (triple-negative breast cancer), MCF-7 (breast cancer), SK-BR-3 (breast cancer), MCF-10A (non-tumoral breast cancer), and A375 (skin cancer—melanoma).
(§2) The MCF-10A cell line was grown in DMEM/F-12 culture medium, supplemented with 5% horse serum, human epidermal growth factor (EGF) (20 ng/mL), hydrocortisone (0.05 mg/mL), insulin (0.01 mg/mL), penicillin (1%), streptomycin (1%), and L-glutamine (2 mM). The A2780, A2780cis, and MCF-7 cell lines were cultured in RPMI-1640 medium, and the other lines in DMEM medium; both culture media were supplemented with 10% (v/v) FBS (fetal bovine serum), antibiotics, and antimycotics. Cultivation was carried out in culture flasks stored in a humid incubator at 37 °C, with an atmosphere of 5% CO2.
(§3) The plates were kept for 24 h in a humidified incubator (37 °C, 5% CO2), after which 0.75 μL of a DMSO solution (0.5% v/v) containing the compounds of interest was added to each well. The plates were then incubated for a further 48 h. The ratio of viability of cells was obtained using the MTT method. Through its reduction via the mitochondrial process, purple formazan is formed, which is proportional to cell viability. After incubating the microplates, 50 μL of a solution of MTT (1 mg∙mL^−1) in PBS was added to each well and the cells were incubated again in the oven for 4 h. Finally, the solution was removed from each well and 100 μL of isopropyl alcohol with 10% DMSO was added to solubilize the Formazan crystals. Absorbance measurements (540 nm) were then taken in each well using a BioTek EPOCH spectrophotometer (BioTek, Winooski, WT, USA). The data obtained was analyzed using Excel 360 and GraphPadPrism 8.0.2.

The subject of data set [2] is MRC5 (non-tumoral lung). As to the kind of experiment: Cell viability (MTT), MRC5. The class given is cell-based. The following applies: 48 h of incubation, non-tumor lung fibroblast. The method, then:
as §1, §2, §3

Data set [3] concerns MCF-7 (breast cancer). As to the kind of experiment: Cell viability (MTT), MCF-7. The class given is cell-based, human. The following applies: for IC50: 48 h of incubation, MTT; for Selectivity index (SI) MCF-7: IC50 MRC5 / IC50 MCF-7. As to the method:
as §1, §2, §3

Data set [4] has as its system MDA-MB-231 (triple-negative breast cancer). As to the kind of experiment: Cell viability (MTT), MDA-MB-231. Type of data set: cell-based, human. As to conditions: for IC50: 48 h of incubation, MTT; for Selectivity index (SI) MDA-MB-231: IC50 MRC5 / IC50 MDA-MB-231. As to the method: as §1, §2, §3
The subject of data set [5] is SK-BR-3 (breast cancer). As to the kind of experiment: Cell viability (MTT), SK-BR-3. The class given is cell-based, human. As to conditions: for IC50: 48 h of incubation, MTT; for Selectivity index (SI) SK-BR-3: IC50 MRC5 / IC50 SK-BR-3. The method, then:
as §1, §2, §3

The subject of data set [6] is A2780 (ovarian cancer). As to the kind of experiment: Cell viability (MTT), A2780. As to conditions: for IC50: 48 h of incubation, MTT; for Selectivity index (SI) A2780: IC50 MRC5 / IC50 A2780. The class given is cell-based. The method, then:
as §1, §2, §3

Data set [7] concerns A549 (lung cancer). As to the kind of experiment: Cell viability (MTT), A549. As to conditions: for IC50: 48 h of incubation, MTT; for Selectivity index (SI) A549: IC50 MRC5 / IC50 A549. Type of data set: cell-based. As to the method:
as §1, §2, §3

Data set [8] in a line: Stability in DMSO by 31P{1H} NMR. The class given is physicochemical. The following applies: d6-DMSO, after 48 h, no change in chemical shift. As to the method:
The ^31P{^1H} NMR experiment was also carried out and the chemical shift values of the different complexes synthesized were similar to each other. There was a shift in the free PPh3 signal from −6.81 ppm to 30 ppm (Figure S12), indicating a reduction in the electronic density at the P of the triphenylphosphine due to coordination with Pd(II). Also, the PdB3 complex was tested for stability in DMSO.

Data set [9] has as its system MCF-10A (non-tumoral breast). As to the kind of experiment: Cell viability (MTT), MCF-10A. Type of data set: cell-based, human. As to conditions: 48 h of incubation, non-tumorigenic breast line, read-out: IC50 MFC-10A. The method, then:
as §1, §2, §3

Data set [10] deals with A375 (skin cancer, melanoma). As to the kind of experiment: Cell viability (MTT), A375. Type of data set: cell-based. As to conditions: 48 h of incubation. The method, then:
as §1, §2, §3

The test system of data set [11] is A2780cis cells. As to the kind of experiment: Clonogenic assay. The class given is cell-based. The following applies: concentrations in relation to the IC50 of each complex, five days of treatment. The method, then: For this test, 600 cells of the A2780cis strain were added to each well of a six-well microplate. After incubating for 24 h in a 5% CO2 atmosphere, different concentrations of the compounds were added to the wells and incubated again for five days. After this period, the culture medium was changed and the plates were incubated for a further five days. Finally, the culture medium was removed and washed with PBS. Subsequently, a solution of methanol and acetic acid (3:1 v/v) was added for five minutes, and then the cells were stained with methyl violet solution. The plates were washed with distilled water. After drying, they were photographed using the iBright™ FL1500 (ThermoFisher, Waltham, MA, USA) and analyzed using ImageJ 1.53 software.

The values below come from PMC12297887, “Enhanced Anticancer Potential of Pd(II)-Thiosemicarbazone Complexes: Selectivity, Mechanisms, and 3D Models” (Pharmaceutics, 2025).

What is called IC50 is the concentration at which inhibition is half-maximal. Take `CNC1=[S+][Pd-]([Cl])([PH](c2ccccc2)(c2ccccc2)c2ccccc2)[N+](=C(/C=C/c2ccccc2)c2ccccc2)N1.[Cl-]` [PdC2, [PdCl(L-C2)(PPh3)]Cl]: the IC50 in data set [1] was 1660 ± 10 nM; in [2] it was over 50 µM; in [3] it was over 50 µM; in data set [4], 9.66 ± 0.4 µM; in data set [5], over 50000 nM; in [6] it was 3930 ± 200 nM. For the same compound, the IC50 in data set [7] is over 50 µM. The “resistance factor (RF)” value in data set [1] is 0.42.
Take `CC#N.CC#N.[Cl][Pd][Cl]` [[PdCl2(MeCN)2], reference compound]: the IC50 in data set [1] is over 50000 nM; in data set [2] it was over 50 µM; in data set [4], over 50 µM; in data set [7] it was over 50 µM.
Turning to `CCNC1=[S+][Pd-]([Cl])([PH](c2ccccc2)(c2ccccc2)c2ccccc2)[N+](=C(C)/C=C/c2ccccc2)N1.[Cl-]` [PdB3, [PdCl(L-B3)(PPh3)]Cl], in data set [1], the IC50 worked out at 260 ± 10 nM, the “resistance factor (RF)” value was determined as 1.13 and the “Selectivity index (SI) A2780cis” value is listed as 35.7. The midpoint of inhibition in [2], the IC50, lay at 9.28 ± 0.3 µM. Also, in data set [3], the IC50 is 0.91 ± 0.008 µM and the “Selectivity index (SI) MCF-7” value is reported as 10.2. In addition, in data set [4], 1.04 ± 0.06 µM corresponded to half-maximal inhibition (IC50) and the “Selectivity index (SI) MDA-MB-231” value came out at 8.9. Further, the “stability in DMSO” value in [8] is “remained stable”. For the same compound, in data set [5], the IC50 is under 2000 nM. In addition, in [6], it took 230 ± 10 nM to reach half-maximal inhibition (IC50) and the “Selectivity index (SI) A2780” value is 40.3. In addition, in data set [7], the IC50 amounted to 13 ± 1 µM and the “Selectivity index (SI) A549” value is reported as 0.7.
With `N.N.[Cl][Pt][Cl]` [Cisplatin, reference compound], the IC50 in [1] amounted to 25100 ± 900 nM; in [9] it was 23.9 ± 0.7 µM; in data set [2], 21.6 ± 0.8 µM; in data set [10], 12.2 ± 0.62 µM; in data set [3], 8.64 ± 0.8 µM; in data set [4] it was 33.14 ± 0.3 µM. The IC50 in [5] came out at 5860 ± 200 nM; in data set [6] it was 14240 ± 50 nM; in data set [7] it was 13 ± 0.4 µM. For the same compound, in [1], the “resistance factor (RF)” value came out at 1.76. Further, the “Selectivity index (SI) A2780cis” value in data set [1] was found to be 0.9. Also, the “Selectivity index (SI) MCF-7” value in [3] came out at 2.5. The “Selectivity index (SI) MDA-MB-231” value in data set [4] was found to be 0.7. Besides, the “Selectivity index (SI) SK-BR-3” value in data set [5] worked out at 3.7. Further, the “Selectivity index (SI) A2780” value in data set [6] is 1.5. Besides, the “Selectivity index (SI) A549” value in data set [7] amounted to 1.7.
Turning to `CCNC1=[S+][Pd-]([Cl])([PH](c2ccccc2)(c2ccccc2)c2ccccc2)[N+](=C(/C=C/c2ccccc2)c2ccccc2)N1.[Cl-]` [PdC3, [PdCl(L-C3)(PPh3)]Cl], the concentration for half-maximal inhibition (IC50) is 11100 ± 600 nM in [1]; over 50 µM in [2]; over 50 µM in data set [3]; over 50 µM in data set [4]; over 50000 nM in [5]; 22800 ± 1000 nM in data set [6]. In data set [7], this compound showed an IC50 of over 50 µM. In [1], the “resistance factor (RF)” value came to 0.48.
Regarding `CNC(NN=C(C)C=Cc1ccccc1)=[S][Pd]([Cl])[P](c1ccccc1)(c1ccccc1)c1ccccc1.[Cl-]` [PdB2], in data set [1], the IC50 came to 210 ± 10 nM, the “resistance factor (RF)” value was determined as 1.62 and the “Selectivity index (SI) A2780cis” value is 32.6. Moreover, the midpoint of inhibition in data set [2], the IC50, lay at 6.85 ± 0.3 µM. In addition, in data set [3], half-maximal inhibition (IC50) required 1.47 ± 0.2 µM and the “Selectivity index (SI) MCF-7” value is on record as 4.7. In addition, in data set [4], the IC50 came out at 0.92 ± 0.08 µM and the “Selectivity index (SI) MDA-MB-231” value was determined as 7.4. In data set [5], half-maximal inhibition (IC50) was put at 1480 ± 60 nM and the “Selectivity index (SI) SK-BR-3” value is on record as 4.6. Moreover, in data set [6], the midpoint of inhibition, the IC50, lay at 130 ± 10 nM and the “Selectivity index (SI) A2780” value is on record as 52.7. Further, in data set [7], the IC50 came out at 30.4 ± 0.4 µM and the “Selectivity index (SI) A549” value came to 0.2.
For `NC1=[S+][Pd-]([Cl])([PH](c2ccccc2)(c2ccccc2)c2ccccc2)[N+](=C(/C=C/c2ccccc2)c2ccccc2)N1.[Cl-]` [PdC1, [PdCl(L-C1)(PPh3)]Cl], the IC50 in data set [1] was 620 ± 10 nM; in data set [9], 2.64 ± 0.06 µM; in data set [2], 46.8 ± 2 µM; in data set [10], over 50 µM; in data set [3] it was 17.7 ± 1 µM; in data set [4], 5.97 ± 0.1 µM. In addition, the figures for the IC50 in [5], in [6] and in data set [7] were 2250 ± 300 nM, 400 ± 10 nM and over 50 µM, respectively. The “resistance factor (RF)” value in [1] came to 1.55. Besides, the “Selectivity index (SI) A2780cis” value in data set [1] was 75.4. Also, in [11], the colony formation result is “reduced colony formation”. Besides, the “Selectivity index (SI) MCF-7” value in data set [3] was 2.6. For the same compound, the “Selectivity index (SI) MDA-MB-231” value in data set [4] came to 7.8. For the same compound, the “Selectivity index (SI) SK-BR-3” value in [5] is reported as 20.8. In addition, in data set [6], the “Selectivity index (SI) A2780” value amounted to 116.9.
